# According to patent publication US20110159019A1, “2,4-DIAMINOPYRIMIDINE COMPOUND” (priority 2008, published 2011):
# Like-named read-outs stand apart in the source and are kept apart here.
# How the values were obtained:
# Full-length human PKCθ = biological target: T1, Full-length human PKCθ (Homo sapiens, UniProt Q04759); experiment: Measurement of human PKCθ enzyme inhibition activity (HTRF KinEASE S1 kit); type: biochemical
# T1 construct: Full-length human PKCθ (Carna Biosciences, final 31 ng/mL); purchased Carna Biosciences
# T1 sequence (Q04759 whole entry): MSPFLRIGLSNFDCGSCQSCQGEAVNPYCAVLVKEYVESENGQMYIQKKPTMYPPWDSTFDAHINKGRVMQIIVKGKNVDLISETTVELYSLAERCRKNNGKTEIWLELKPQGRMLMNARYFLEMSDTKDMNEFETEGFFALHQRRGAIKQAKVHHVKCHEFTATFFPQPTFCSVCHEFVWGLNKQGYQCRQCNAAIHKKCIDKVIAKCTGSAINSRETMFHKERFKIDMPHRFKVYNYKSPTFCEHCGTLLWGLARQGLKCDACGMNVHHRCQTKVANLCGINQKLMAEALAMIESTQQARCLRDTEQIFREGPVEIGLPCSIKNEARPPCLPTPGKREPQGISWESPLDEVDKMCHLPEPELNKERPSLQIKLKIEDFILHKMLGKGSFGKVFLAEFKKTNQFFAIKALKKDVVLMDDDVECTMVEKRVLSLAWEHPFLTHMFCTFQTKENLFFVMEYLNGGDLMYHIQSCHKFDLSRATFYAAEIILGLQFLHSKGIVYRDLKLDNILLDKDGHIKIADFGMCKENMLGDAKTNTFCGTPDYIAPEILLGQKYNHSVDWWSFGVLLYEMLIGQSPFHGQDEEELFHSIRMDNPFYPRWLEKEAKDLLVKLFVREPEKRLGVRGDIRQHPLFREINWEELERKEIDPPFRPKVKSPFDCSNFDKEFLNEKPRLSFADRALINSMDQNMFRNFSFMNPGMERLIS
# Protocol: Test Method 1: Measurement of Human PKCθ Enzyme Inhibition Activity
# The test was carried out using a HTRF® KinEASE™ S1 kit (CIS bio). […] Then, 3 μL of an ATP liquid (final 30 μM) was dispensed therein to carry out an enzyme reaction at room temperature for 1 hour.
# Ex represents Compound No. of Examples as described later.
# Cytochrome P450 (CYP3A4) = biological target: T2, Cytochrome P450 (CYP3A4) (Homo sapiens, UniProt P08684); experiment: Measurement of cytochrome P450 (CYP3A4) enzyme inhibition activity in human liver microsome (inhibition tests I and II, midazolam substrate); type: in vitro ADME; conditions: for I (%) Remaining Rate I: inhibition test I: 5 μM test compound, 2 μM midazolam, human liver microsome, 37° C. 20 minutes, no preincubation; for II (%) Remaining Rate II: inhibition test II: 5 μM test compound preincubated 30 minutes with human liver microsome and NADPH, then 2 μM midazolam 20 minutes, relative to test I
# T2 construct: human liver microsome (0.1 mg protein/mL); from tissue; host or cells: human liver microsomes
# T2 sequence (P08684 whole entry): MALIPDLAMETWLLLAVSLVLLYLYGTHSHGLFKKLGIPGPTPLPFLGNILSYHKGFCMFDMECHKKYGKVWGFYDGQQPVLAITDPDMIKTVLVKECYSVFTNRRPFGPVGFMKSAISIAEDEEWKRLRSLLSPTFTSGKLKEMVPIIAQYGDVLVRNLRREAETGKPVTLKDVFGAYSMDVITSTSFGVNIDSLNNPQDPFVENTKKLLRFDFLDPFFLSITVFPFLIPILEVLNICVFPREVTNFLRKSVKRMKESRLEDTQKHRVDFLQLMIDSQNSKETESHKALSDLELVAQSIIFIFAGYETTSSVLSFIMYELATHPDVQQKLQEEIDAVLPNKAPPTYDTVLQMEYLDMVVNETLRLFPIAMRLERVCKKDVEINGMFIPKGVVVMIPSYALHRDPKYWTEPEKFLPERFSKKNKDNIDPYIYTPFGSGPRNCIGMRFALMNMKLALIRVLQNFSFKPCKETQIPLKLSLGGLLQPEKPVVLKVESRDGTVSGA
# Protocol: Test Method 3: Measurement of Cytochrome P450 (CYP3A4) Enzyme Inhibition Activity i) Inhibition Test I (Calculation of Remaining Rate I)
# Using a 96-well plate, 2 μM of a substrate (midazolam), 5 μM of a test compound, and human liver microsome (0.1 mg protein/mL) were incubated at 37° C. for 20 minutes in a total amount of 150 μL of a 100 mM phosphate buffer (pH 7.4) containing 0.1 mM EDTA and 1 mM NADPH. Then, the reaction was stopped by adding 130 μl of an aqueous solution containing 80% acetonitrile. Thereafter, the samples were analyzed by LC/MS/MS, and the remaining rates I were calculated using the following equation 1.
# Remaining Rate I(%)=Ai,I/Ao,I×100 (Equation 1)
# Ai, I=Amount of produced metabolite after reaction in the presence of the test compound in the inhibition test I Ao, I=Amount of produced metabolite after reaction in the absence of the test compound in the inhibition test I ii) Inhibition Test II (Calculation of Remaining Rate II)
# Using a 96-well plate, 5 μM of a test compound and human liver microsome (0.1 mg protein/mL) were incubated at 37° C. for 30 minutes in a total amount of 145 μL of a 100 mM phosphate buffer (pH=7.4) containing 0.1 mM EDTA and 1 mM NADPH. Then, 2 μM of midazolam as the substrate was added thereto at a total amount of 150 μL of and incubated at 37° C. for 20 minutes. After the incubation, the reaction was stopped by adding 130 μL of an aqueous solution containing 80% acetonitrile. Thereafter, the samples were analyzed by LC/MS/MS, and the remaining rate II was calculated using the following equation 2.
# Remaining Rate II(%)=Ai,II/Ao,II/(Ai,I/Ao,I)×100 (Equation 2)
# Ai, II=Amount of produced metabolite after reaction in the presence of the test compound in the inhibition test II […]=Amount of produced metabolite after reaction in the absence of the test compound in the inhibition test II […]
# Ex represents No. of the Example Compounds as described below.
# [1] = full-length human PKCθ, ATP 30 μM, HTRF, read-out: IC50 (nM), human PKCθ enzyme inhibition
Compound,IC50 (Full-length human PKCθ; [1]) [nM],I (%) Remaining Rate I (Cytochrome P450 (CYP3A4)) [%],II (%) Remaining Rate II (Cytochrome P450 (CYP3A4)) [%],IC50 (Full-length human PKCθ) [nM]
N#Cc1cnc(NCc2ccccc2Cl)nc1NC[C@]12CC3C[C@H](C1)[C@@H](NC[C@H]1CC[C@@H](O)CC1)[C@@H](C3)C2 (relative stereo) [Example 401],0.65,84,89,–
"CSc1ccccc1CNc1ncc(C#N)c(NC[C@]23CC4C[C@H](C2)[C@@H](N[C@H]2CC[C@H](O)CC2)[C@@H](C4)C3)n1 (relative stereo) [Example 43, rel-4-[({(1R,3S,4R,5R)-4-[(trans-4-hydroxycyclohexyl)amino]adamantan-1-yl]methyl)amino}-2-{[2-(methylsulfanyl)benzyl]amino}pyrimidine-5-carbonitrile]",0.44,76,99,–
COc1ccccc1CNc1ncc(C#N)c(NC[C@]23CC4C[C@H](C2)[C@@H](NCC[C@H](O)CO)[C@@H](C4)C3)n1 (relative stereo) [Example 195],3.3,88,82,–
COc1ccccc1CNc1ncc(C#N)c(NC[C@]23CC4C[C@H](C2)[C@@H](N2CC(CO)(CO)C2)[C@@H](C4)C3)n1 (relative stereo) [Example 196],3.9,86,87,–
C[C@]1(O)CC[C@H](CN[C@@H]2[C@@H]3CC4C[C@H]2C[C@@](CNc2nc(NCc5ccccc5OC(F)F)ncc2C#N)(C4)C3)CC1 (relative stereo) [Example 372],1.22,78,84,–
N#Cc1cnc(NCc2ccccc2Cl)nc1NC[C@]12CC3C[C@H](C1)[C@@H](NC[C@H]1CC[C@H](O)CC1)[C@@H](C3)C2 (relative stereo) [Example 340],1.4,91,83,–
CN([C@H]1CC[C@H](O)CC1)[C@@H]1[C@@H]2CC3C[C@H]1C[C@@](CNc1nc(NCc4ccccc4OC(F)(F)F)ncc1C#N)(C3)C2 [Example 115],3.5,75,90,–
N#Cc1cnc(NCc2ccccc2Cl)nc1NC[C@]12CC3C[C@H](C1)[C@@H](NC1CCNCC1)[C@@H](C3)C2 [Example 169],0.36,83,89,–
CSc1ncccc1CNc1ncc(C#N)c(NC[C@]23CC4C[C@H](C2)[C@@H](NC[C@H]2CC[C@H](O)CC2)[C@@H](C4)C3)n1 (relative stereo) [Example 344],0.48,89,84,–
CSc1ccccc1CNc1ncc(C#N)c(NC[C@]23CC4C[C@H](C2)[C@@H](NCC[C@H](O)CO)[C@@H](C4)C3)n1 (relative stereo) [Example 200],0.28,95,85,–
N#Cc1cnc(NCc2ccccc2Cl)nc1NC[C@]12CC3C[C@H](C1)[C@@H](NCC1CCNCC1)[C@@H](C3)C2 [Example 321],0.25,90,92,–
COc1ccccc1CNc1ncc(C#N)c(NC[C@]23CC4C[C@H](C2)[C@@H](N(C)CCCCO)[C@@H](C4)C3)n1 [Example 107],5.4,77,84,–
N#Cc1cnc(NCc2ccccc2OC(F)(F)F)nc1NC[C@]12CC3C[C@H](C1)[C@@H](N[C@H]1CC[C@@H](N)CC1)[C@@H](C3)C2 [Example 303],0.065,75,88,–
N#Cc1cnc(Nc2cccc(Br)c2)nc1NC[C@]12CC3C[C@H](C1)[C@@H](N)[C@@H](C3)C2 [Example 187],3.8,–,–,–
"N#Cc1cnc(NCc2ccccc2OC(F)(F)F)nc1NC[C@]12CC3C[C@H](C1)[C@H](N[C@H]1CC[C@H](O)CC1)[C@@H](C3)C2 (relative stereo) [Example 41, rel-4-[({(1R,3S,4R,5R)-4-[(trans-4-hydroxycyclohexyl)amino]adamantan-1-yl}methyl)amino]-2-{[2-(trifluoromethoxy)benzyl]amino}pyrimidine-5-carbonitrile]",14,80,102,–
COc1ccc(CO)cc1CNc1ncc(C#N)c(NC[C@]23CC4C[C@H](C2)[C@@H](N)[C@@H](C4)C3)n1 [Example 139],13,–,–,–
C[C@]1(O)CC[C@@H](CN[C@@H]2[C@@H]3CC4C[C@H]2C[C@@](CNc2nc(NCc5ccccc5OC(F)F)ncc2C#N)(C4)C3)CC1 (relative stereo) [Example 371],0.7,–,–,–
N#Cc1cnc(NCc2ccccc2Cl)nc1NC[C@]12CC3C[C@H](C1)[C@@H](NCC1CCN(CCF)CC1)[C@@H](C3)C2 [Example 219],–,76,94,0.4
N#Cc1cnc(NCc2ccccc2Cl)nc1NC[C@]12CC3C[C@H](C1)[C@@H](N1CC(O)C1)[C@@H](C3)C2 [Example 211],0.96,–,–,–
CSc1ccccc1CNc1ncc(C#N)c(NC[C@]23CC4C[C@H](C2)[C@@H](NC[C@H]2CC[C@@H](O)CC2)[C@@H](C4)C3)n1 (relative stereo) [Example 264],1.9,–,–,–
